Measured values from patent publication US9708251B2, “Unsaturated fatty alcohol alkoxylates from natural oil metathesis” (Stepan Company, priority 2012, dated 2017).

Legend:
Format in all cases: physicochemical
[1] = Emulsion stability testing of nonionic emulsifiers, Hallcomid solvent series; set-up: key: C = creamy; CO = creamy oil; O = oil; GC = gritty cream; NS = no separation; OC = oily cream; Tr. = trace; conditions: Bifenthrin 240 g/L in Hallcomid M-8-10, 34 ppm water
Description: Nonionic samples contain a low amount of water (<1%) and are prepared as emulsifiable concentrates with three pesticides using two different solvent systems. In the aromatic solvent series, the nonionic sample replaces Toximul® 8240 (castor oil ethoxylate, 36 POE, Stepan), and in the Hallcomid™ (N,N-dimethylcaprylamide/N,N-dimethylcapramide, Stepan) solvent series, the nonionic sample replaces Ninex® MT-630F.
Hallcomid Solvent Series.
Sample preparation: The surfactants are combined and stirred until homogeneous, with the nonionic sample melted if needed prior to combination. Controls 1-3 are made by using Ninex MT-630F in the amounts indicated instead of the nonionic sample.
Emulsion Stability Testing
A Mohr pipette is used to feed pesticide/surfactant concentrates to each cylinder.

[2] = Emulsion stability testing of nonionic emulsifiers, aromatic solvent series; set-up: key to 24 h separation, appearance / 1 h separation, appearance / 1 h separation, amount: C = creamy; CO = creamy oil; O = oil; GC = gritty cream; NS = no separation; OC = oily cream; key to Spon. (spontaneity): G = good; F = fair; P = poor
[3] = Surfactant phase behavior study (cross-polarized microscopy); conditions: room temperature
Procedure, shortened: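 Saturated analogs serve as comparators. Water dilutions of the product, stepped at 2-4% near transitions, equilibrated between slide and cover glass and assigned phase by cross-polarized microscopy texture at 100-400×, 20-22° C. Boundaries lie within ±5% actives; some samples checked by viscosity at 25° C.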

[4] = Emulsion stability testing of nonionic emulsifiers, Hallcomid solvent series; set-up: key to 24 h separation, appearance / 1 h separation, appearance / 1 h separation, amount: C = creamy; CO = creamy oil; O = oil; GC = gritty cream; NS = no separation; OC = oily cream; key to Spon. (spontaneity): G = good; F = fair; P = poor
[5] = Fabric cleaning: compaction (surfactant blends)
Description: The sample is formulated into surfactant blends having high actives content. Two experimental derivatives, A12-13 and A12-21, are evaluated.
In a first experiment, a three-component surfactant blend is prepared. This blend comprises the experimental sample (30 wt. %), a linear alkylbenzene sulfonate (15 wt. %), and an alkyl ether sulfate (15 wt. %). The appearance and viscosity of the blend are compared with those of similar three-component blends in which a standard alcohol ethoxylate replaces the experimental sample.
In a second experiment, a two-component surfactant blend is prepared in which the experimental sample and a linear alkylbenzene sulfonate are combined at a 1:1 actives ratio, beginning with a high actives blend having a cloudy appearance. Water is gradually added and mixed with the surfactant blend at room temperature. […]

[6] = Solubility evaluation: enhanced oil recovery (EOR); conditions: for Comments (appearance) / Soluble?: 1 wt. % sample, 1% sodium chloride brine
Description: Samples are prepared in a 10% stock solution and evaluated at 1 wt. % with a brine concentration of 1% sodium chloride. Replicate experiments are performed at each temperature with each sample.

[7] = Agrichemical solvent analysis: active solubility; conditions: room temperature
Description: Solvency strength of potential agrichemical solvents is evaluated by identifying the solubility level of three standard pesticides in the solvent by weight percent: 2,4-D acid, imidacloprid, and tebuconazole. […] The active material is also accurately weighed before addition. Initial amounts of active material are approximately: 2,4-D: 0.3 g; imidacloprid: 0.02 g; tebuconazole: 0.3 g. Solvent and pesticide active are combined, allowed to mix for 1 h at room temperature, and then inspected for the presence of undissolved active material. Additional active material is added in appropriately small increments until it no longer dissolves completely. This mixture is then stirred for 24 h at room temperature, and if the active has completely dissolved, additional active ingredient is added and the mixture is stirred another 24 h at room temperature. The percent solubility is recorded, and performance is compared with that of a standard agricultural solvent.

[8] = Emulsion stability testing of nonionic emulsifiers, Hallcomid solvent series; set-up: key: C = creamy; CO = creamy oil; O = oil; GC = gritty cream; NS = no separation; OC = oily cream; conditions: Bifenthrin 240 g/L in Hallcomid M-8-10, 34 ppm water
[9] = 2,4-D ester 480 g/L in Exxsol D-110, 34 ppm water
[10] = 2,4-D ester 480 g/L in Exxsol D-110, 1000 ppm water
[11] = Bifenthrin 240 g/L in Aromatic 100, 34 ppm water
[12] = Bifenthrin 240 g/L in Aromatic 100, 1000 ppm water
[13] = Tebuconazole 360 g/L in N-methyl-2-pyrrolidone, 34 ppm water
[14] = Tebuconazole 360 g/L in N-methyl-2-pyrrolidone, 1000 ppm water
[15] = 2,4-D diester 480 g/L in Hallcomid M-8-10, 34 ppm water
[16] = 2,4-D diester 480 g/L in Hallcomid M-8-10, 1000 ppm water
[17] = Bifenthrin 240 g/L in Hallcomid M-8-10, 34 ppm water
[18] = Bifenthrin 240 g/L in Hallcomid M-8-10, 1000 ppm water
[19] = Tebuconazole 360 g/L in Hallcomid M-8-10, 34 ppm water
[20] = Tebuconazole 360 g/L in Hallcomid M-8-10, 1000 ppm water
[21] = three-component blend: sample 30 wt. %, linear alkylbenzene sulfonate 15 wt. %, alkyl ether sulfate 15 wt. %

Structure (SMILES): CCC=CCCCCCCCCOCCOCCOCCOCCOCCO (mixture of isomers) [A12-10]
- 24 h separation, amount [1]: Tr.
- 1 h separation, amount [2, 9]: 0.7 mL
- 1 h separation, appearance [2, 9]: C
- 24 h separation, amount [2, 9]: 3.9 mL
- 24 h separation, appearance [2, 9]: C
- Spon. (spontaneity) [2, 9]: F
- 1 h separation, amount [2, 10]: 4.6 mL
- 1 h separation, appearance [2, 10]: CO
- 24 h separation, amount [2, 10]: 0.75 O, 4.3 CO
- Spon. (spontaneity) [2, 10]: P
- 1 h separation, amount [2, 11]: 2.3 mL
- 1 h separation, appearance [2, 11]: C
- 24 h separation, amount [2, 11]: 9 mL
- 24 h separation, appearance [2, 11]: C
- Spon. (spontaneity) [2, 11]: F
- Spon. (spontaneity) [2, 12]: F
- 1 h separation, amount [2, 13]: 2.6 mL
- 1 h separation, appearance [2, 13]: C
- 24 h separation, amount [2, 13]: 4 mL
- 24 h separation, appearance [2, 13]: GC
- Spon. (spontaneity) [2, 13]: P
- 1 h separation, amount [2, 14]: 2.1 mL
- 1 h separation, appearance [2, 14]: C
- 24 h separation, amount [2, 14]: 3.2 mL
- 24 h separation, appearance [2, 14]: GC
- Spon. (spontaneity) [2, 14]: P
- Lamellar phase region ([3]; in deionized water): 50-80 % Actives Level
- Lamellar/Isotropic phase region ([3]; in deionized water): 35-50 % Actives Level
- 1 h separation, amount [4, 15]: 5.3 mL
- 1 h separation, appearance [4, 15]: C
- 24 h separation, amount [4, 15]: 9.2 mL
- 24 h separation, appearance [4, 15]: C
- Spon. (spontaneity) [4, 15]: P
- 1 h separation, amount [4, 16]: 6.8 mL
- 1 h separation, appearance [4, 16]: C
- 24 h separation, amount [4, 16]: 8.7 mL
- 24 h separation, appearance [4, 16]: C
- Spon. (spontaneity) [4, 16]: F
- 1 h separation, amount [4, 17]: NS
- 24 h separation, appearance [4, 17]: C
- Spon. (spontaneity) [4, 17]: G
- 1 h separation, amount [4, 18]: 6.1 mL
- 1 h separation, appearance [4, 18]: O
- 24 h separation, amount [4, 18]: 3 O, 2 CO
- Spon. (spontaneity) [4, 18]: F
- 1 h separation, amount [4, 19]: 2.1 mL
- 1 h separation, appearance [4, 19]: C
- 24 h separation, amount [4, 19]: 5.1 mL
- 24 h separation, appearance [4, 19]: C
- Spon. (spontaneity) [4, 19]: F
- 1 h separation, amount [4, 20]: 2 mL
- 1 h separation, appearance [4, 20]: C
- 24 h separation, amount [4, 20]: 4.2 mL
- 24 h separation, appearance [4, 20]: C
- Spon. (spontaneity) [4, 20]: F

Structure (SMILES): CCC=CCCCCCCCCOCCOCCOCCOCCOCCOCCOCCOCCOCCO (mixture of isomers) [A12-21]
- Appearance, 25° C. [5, 21]: cloudy, flowable gel
- Viscosity [5, 21]: 5600 cPs
- % Actives at which blend is clear and homogeneous at 25° C. ([5]; two-component blend with linear alkylbenzene sulfonate, 1:1 actives ratio): 51 % Actives

Structure (SMILES): C=CCCCCCCCCOCCOCCOCCO [A10-7]
- Comments (appearance) ([6]; 20.7 °C): white, opaque
- Soluble? ([6]; 20.7 °C): no
- Comments (appearance) ([6]; 51.5 °C): white, opaque
- Soluble? ([6]; 51.5 °C): no
- Comments (appearance) ([6]; 56.1 °C): white, hazy
- Soluble? ([6]; 56.1 °C): no
- Overall performance (EOR solubility) ([6]; versus control fatty alcohol ethoxylate): Overall performance of A10-7: Equal to control
- solubility of 2,4-D Acid in the solvent [7]: 29.5 weight percent
- solubility of Imidacloprid in the solvent [7]: 2.9 weight percent
- solubility of Tebuconazole in the solvent [7]: 13.5 weight percent
- 1 h separation, amount [2, 9]: 4 mL
- 1 h separation, appearance [2, 9]: CO
- 24 h separation, amount [2, 9]: 1 O, 4.5 CO
- Spon. (spontaneity) [2, 9]: P
- 1 h separation, amount [2, 10]: 4 mL
- 1 h separation, appearance [2, 10]: O
- 24 h separation, amount [2, 10]: 4 mL
- 24 h separation, appearance [2, 10]: O
- Spon. (spontaneity) [2, 10]: P
- 1 h separation, amount [2, 11]: 7 mL
- 1 h separation, appearance [2, 11]: CO
- 24 h separation, amount [2, 11]: 6.5 mL
- 24 h separation, appearance [2, 11]: CO
- Spon. (spontaneity) [2, 11]: P
- 1 h separation, amount [2, 12]: 6 mL
- 1 h separation, appearance [2, 12]: O
- 24 h separation, amount [2, 12]: 5 mL
- 24 h separation, appearance [2, 12]: O
- Spon. (spontaneity) [2, 12]: P
- 1 h separation, amount [2, 13]: 2 mL
- 1 h separation, appearance [2, 13]: GC
- 24 h separation, amount [2, 13]: 3 mL
- 24 h separation, appearance [2, 13]: GC
- Spon. (spontaneity) [2, 13]: P
- 1 h separation, amount [2, 14]: 2.5 mL
- 1 h separation, appearance [2, 14]: GC
- 24 h separation, amount [2, 14]: 3 mL
- 24 h separation, appearance [2, 14]: GC
- Spon. (spontaneity) [2, 14]: P
- combined isotropic phases (clear and opaque), share of the total [3]: about 50%
- Isotropic Clear phase region ([3]; in deionized water): 70-100 % Actives Level
- Isotropic Opaque phase region ([3]; in deionized water): 0-20 % Actives Level
- Lamellar phase region ([3]; in deionized water): 20-70 % Actives Level
- 24 h separation, amount [8]: NS
- 1 h separation, amount [4, 15]: 5.6 mL
- 1 h separation, appearance [4, 15]: C
- 24 h separation, amount [4, 15]: 10 mL
- 24 h separation, appearance [4, 15]: C
- Spon. (spontaneity) [4, 15]: F
- 1 h separation, amount [4, 16]: 6 mL
- 1 h separation, appearance [4, 16]: C
- 24 h separation, amount [4, 16]: 7.5 mL
- 24 h separation, appearance [4, 16]: C
- Spon. (spontaneity) [4, 16]: F
- 1 h separation, amount [4, 17]: NS
- Spon. (spontaneity) [4, 17]: F
- 1 h separation, amount [4, 18]: 10 mL
- 1 h separation, appearance [4, 18]: CO
- 24 h separation, amount [4, 18]: 3 O, 3 CO
- Spon. (spontaneity) [4, 18]: P
- 1 h separation, amount [4, 19]: 2.5 mL
- 1 h separation, appearance [4, 19]: C
- 24 h separation, amount [4, 19]: 5 mL
- 24 h separation, appearance [4, 19]: C
- Spon. (spontaneity) [4, 19]: F
- 1 h separation, amount [4, 20]: 3 mL
- 1 h separation, appearance [4, 20]: C
- 24 h separation, amount [4, 20]: 5 mL
- 24 h separation, appearance [4, 20]: C
- Spon. (spontaneity) [4, 20]: F
